Tests used:
Assay type in all cases: in vivo
[1] = tested on: barnyardgrass (Echinochloa crus-galli); test: Test A preemergence, barnyardgrass; details: 0 to 100 scale, 0 no effect, 100 complete control
Text: (§1) Seeds of plant species selected from barnyardgrass (Echinochloa crus-galli), crabgrass, large (large crabgrass, Digitaria sanguinalis), kochia (Kochia scoparia), ragweed (common ragweed, Ambrosia elatior), morningglory (Ipomoea spp.), velvetleaf (Abutilon theophrasti), ryegrass, Italian (Italian ryegrass, Lolium multiflorum), foxtail, giant (giant foxtail, Setaria faberii), wheat (Triticum aestivum), corn (Zea mays), and pigweed (Amaranthus retroflexus), were planted into a blend of loam soil and sand and treated preemergence with a directed soil spray using test chemicals formulated in a non-phytotoxic solvent mixture which included a surfactant. At the same time, plants selected from these crop and weed species and also blackgrass (Alopecurus myosuroides), and galium (catchweed bedstraw, Galium aparine), were planted in pots containing the same blend of loam soil and sand and treated with postemergence applications of test chemicals formulated in the same manner. Plants ranged in height from 2 to 10 cm and were in the one- to two-leaf stage for the postemergence treatment. Treated plants and untreated controls were maintained in a greenhouse for approximately 10 d, after which time all treated plants were compared to untreated controls and visually evaluated for injury. Plant response ratings, summarized in Table A, are based on a 0 to 100 scale where 0 is no effect and 100 is complete control. A dash (-) response means no test result.

[2] = tested on: kochia (Kochia scoparia); test: Test A preemergence, kochia; details: 0 to 100 scale, 0 no effect, 100 complete control
Text: as §1

[3] = tested on: ragweed (common ragweed, Ambrosia elatior); test: Test A preemergence, ragweed; details: 0 to 100 scale, 0 no effect, 100 complete control
Text: as §1

[4] = tested on: ryegrass, Italian (Italian ryegrass, Lolium multiflorum); test: Test A preemergence, ryegrass, Italian; details: 0 to 100 scale, 0 no effect, 100 complete control
Text: as §1

[5] = tested on: foxtail, giant (giant foxtail, Setaria faberii); test: Test A preemergence, foxtail, giant; details: 0 to 100 scale, 0 no effect, 100 complete control
Text: as §1

[6] = tested on: pigweed (Amaranthus retroflexus); test: Test A preemergence, pigweed; details: 0 to 100 scale, 0 no effect, 100 complete control
Text: as §1

[7] = tested on: barnyardgrass (Echinochloa crus-galli); test: Test A postemergence, barnyardgrass; details: 0 to 100 scale, 0 no effect, 100 complete control
Text: as §1

[8] = tested on: kochia (Kochia scoparia); test: Test A postemergence, kochia; details: 0 to 100 scale, 0 no effect, 100 complete control
Text: as §1

[9] = tested on: ragweed (common ragweed, Ambrosia elatior); test: Test A postemergence, ragweed; details: 0 to 100 scale, 0 no effect, 100 complete control
Text: as §1

[10] = tested on: ryegrass, Italian (Italian ryegrass, Lolium multiflorum); test: Test A postemergence, ryegrass, Italian; details: 0 to 100 scale, 0 no effect, 100 complete control
Text: as §1

[11] = tested on: foxtail, giant (giant foxtail, Setaria faberii); test: Test A postemergence, foxtail, giant; details: 0 to 100 scale, 0 no effect, 100 complete control
Text: as §1

[12] = tested on: wheat (Triticum aestivum); test: Test A postemergence, wheat; details: 0 to 100 scale, 0 no effect, 100 complete control
Text: as §1

[13] = tested on: corn (Zea mays); test: Test A postemergence, corn; details: 0 to 100 scale, 0 no effect, 100 complete control
Text: as §1

[14] = tested on: pigweed (Amaranthus retroflexus); test: Test A postemergence, pigweed; details: 0 to 100 scale, 0 no effect, 100 complete control
Text: as §1

[15] = tested on: blackgrass (Alopecurus myosuroides); test: Test A postemergence, blackgrass; details: 0 to 100 scale, 0 no effect, 100 complete control
Text: as §1

[16] = tested on: galium (catchweed bedstraw, Galium aparine); test: Test A postemergence, galium; details: 0 to 100 scale, 0 no effect, 100 complete control
Text: as §1

[17] = tested on: barnyardgrass (Echinochloa crus-galli); test: Test B flooded paddy test, barnyardgrass; details: Flood, scale 0 to 100 (0 no effect, 100 complete control), 13 to 15 d
Description: (§2) Plant species in the flooded paddy test selected from rice (Oryza sativa), sedge, umbrella (small-flower umbrella sedge, Cyperus difformis), ducksalad (Heteranthera limosa), and barnyardgrass (Echinochloa crus-galli) were grown to the 2-leaf stage for testing. At time of treatment, test pots were flooded to 3 cm above the soil surface, treated by application of test compounds directly to the paddy water, and then maintained at that water depth for the duration of the test. Treated plants and controls were maintained in a greenhouse for 13 to 15 d, after which time all species were compared to controls and visually evaluated. Plant response ratings, summarized in Table B, are based on a scale of 0 to 100 where 0 is no effect and 100 is complete control. A dash (-) response means no test result.

[18] = tested on: ducksalad (Heteranthera limosa); test: Test B flooded paddy test, ducksalad; details: Flood, scale 0 to 100 (0 no effect, 100 complete control), 13 to 15 d
Description: as §2

[19] = tested on: rice (Oryza sativa); test: Test B flooded paddy test, rice; details: Flood, scale 0 to 100 (0 no effect, 100 complete control), 13 to 15 d
Description: as §2

[20] = tested on: sedge, umbrella (small-flower umbrella sedge, Cyperus difformis); test: Test B flooded paddy test, sedge, umbrella; details: Flood, scale 0 to 100 (0 no effect, 100 complete control), 13 to 15 d
Description: as §2

Row | Structure (SMILES) | Plant response rating, Barnyardgrass ([1]; 125 g ai/ha) | Plant response rating, Barnyardgrass ([1]; 500 g ai/ha) | Plant response rating, Kochia ([2]; 125 g ai/ha) | Plant response rating, Kochia ([2]; 500 g ai/ha) | Plant response rating, Ragweed ([3]; 125 g ai/ha) | Plant response rating, Ragweed ([3]; 500 g ai/ha) | Plant response rating, Ryegrass, Italian ([4]; 125 g ai/ha) | Plant response rating, Ryegrass, Italian ([4]; 500 g ai/ha) | Plant response rating, Foxtail, Giant ([5]; 125 g ai/ha) | Plant response rating, Foxtail, Giant ([5]; 500 g ai/ha) | Plant response rating, Pigweed ([6]; 125 g ai/ha) | Plant response rating, Pigweed ([6]; 500 g ai/ha) | Plant response rating, Barnyardgrass ([7]; 125 g ai/ha) | Plant response rating, Barnyardgrass ([7]; 500 g ai/ha) | Plant response rating, Kochia ([8]; 125 g ai/ha) | Plant response rating, Kochia ([8]; 500 g ai/ha) | Plant response rating, Ragweed ([9]; 125 g ai/ha) | Plant response rating, Ragweed ([9]; 500 g ai/ha) | Plant response rating, Ryegrass, Italian ([10]; 125 g ai/ha) | Plant response rating, Ryegrass, Italian ([10]; 500 g ai/ha) | further results
1 | O=C1NCC(c2ccc(F)c(F)c2)N1C(=O)Nc1cccc(F)c1F (stereo not drawn) [Compound 11, N-(2,3-difluorophenyl)-5-(3,4-difluorophenyl)-2-oxo-1-imidazolidinecarboxamide] | 0 | 40 | 0 | 30 | 0 | 0 | 0 | 30 | 0 | 80 | 0 | 0 | 0 | 20 | 0 | 0 | 0 | 0 | 0 | 0 | Plant response rating, Foxtail, Giant ([11]; 125 g ai/ha): 0; Plant response rating, Foxtail, Giant ([11]; 500 g ai/ha): 30; Plant response rating, Wheat ([12]; 125 g ai/ha): 0; Plant response rating, Wheat ([12]; 500 g ai/ha): 0; Plant response rating, Corn ([13]; 125 g ai/ha): 0; Plant response rating, Corn ([13]; 500 g ai/ha): 0; Plant response rating, Pigweed ([14]; 125 g ai/ha): 0; Plant response rating, Pigweed ([14]; 500 g ai/ha): 0; Plant response rating, Blackgrass ([15]; 125 g ai/ha): 0; Plant response rating, Blackgrass ([15]; 500 g ai/ha): 0; Plant response rating, Galium ([16]; 125 g ai/ha): 0; Plant response rating, Galium ([16]; 500 g ai/ha): 0; Plant response rating, Barnyardgrass ([17]; 500 g ai/ha): 0; Plant response rating, Ducksalad ([18]; 500 g ai/ha): 60; Plant response rating, Rice ([19]; 500 g ai/ha): 0; Plant response rating, Sedge, Umbrella ([20]; 500 g ai/ha): 0
2 | O=C1NCC(c2ccccc2)N1C(=O)Nc1cccc(F)c1F (stereo not drawn) [Compound 12, N-(2,3-difluorophenyl)-2-oxo-5-phenyl-1-imidazolidinecarboxamide] | 20 | 50 | 0 | 20 | 0 | 0 | 0 | 0 | 60 | 90 | 0 | 0 | 60 | 90 | 0 | 0 | 0 | 0 | 0 | 0 | Plant response rating, Foxtail, Giant ([11]; 125 g ai/ha): 80; Plant response rating, Foxtail, Giant ([11]; 500 g ai/ha): 80; Plant response rating, Wheat ([12]; 125 g ai/ha): 0; Plant response rating, Wheat ([12]; 500 g ai/ha): 0; Plant response rating, Corn ([13]; 125 g ai/ha): 0; Plant response rating, Corn ([13]; 500 g ai/ha): 0; Plant response rating, Pigweed ([14]; 125 g ai/ha): 0; Plant response rating, Pigweed ([14]; 500 g ai/ha): 0; Plant response rating, Blackgrass ([15]; 125 g ai/ha): 0; Plant response rating, Blackgrass ([15]; 500 g ai/ha): 0; Plant response rating, Galium ([16]; 125 g ai/ha): 0; Plant response rating, Galium ([16]; 500 g ai/ha): 0; Plant response rating, Barnyardgrass ([17]; 1000 g ai/ha): 0; Plant response rating, Ducksalad ([18]; 1000 g ai/ha): 90; Plant response rating, Rice ([19]; 1000 g ai/ha): 0; Plant response rating, Sedge, Umbrella ([20]; 1000 g ai/ha): 0
